pKi: −log10 of the molar value. Read-outs that look alike come from different tables or passages of the source.
Legend:
[1] = molecular target: Mcl-1 (Homo sapiens (Human), UniProt Q07820); experiment: TR-FRET binding assay, FITC-Bak peptide and MBP-tagged Mcl-1; details: read-out: Ki for Inhibition of Mcl-1 by TR-FRET assay
Protocol: Compounds are diluted in DMSO in a 16-point, semilog serial dilution scheme. […] The plate was mixed and incubated for 3 hours at room temperature. […] TR-FRET signal is plotted and IC50 and Ki values are calculated in the same manner as the fluorescence polarization anisotropy based competition assays.

[2] = tested on: H929 human cancer cell lines; experiment: Cellular viability / proliferation (Cell TiterGlo, 72 h); format: cell-based
Summary of the method: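 Plating is at 1,000 cells/well in 10% FBS medium; after 24 h, compound is added as a 2-fold series starting at 50 μM with under 1% DMSO.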

[3] = Homo sapiens, NCI-H929, 72 h, read-out: GI50 on cellular proliferation of H929 human cancer cell lines, H929 cells, 72 h, Cell TiterGlo, 10% FBS

Mcl-1, sequence (Q07820 172-327): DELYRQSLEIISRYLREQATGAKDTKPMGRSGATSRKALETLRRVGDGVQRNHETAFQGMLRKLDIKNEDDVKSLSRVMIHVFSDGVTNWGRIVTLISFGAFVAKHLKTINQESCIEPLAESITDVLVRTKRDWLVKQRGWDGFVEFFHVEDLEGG

SMILES | pKi [1] | GI50 [2, 3] | GI50 ([2]; read-out: GI50 on cellular proliferation of H929 human cancer cell lines, H929 cells, 72 h, Cell TiterGlo, 10% FBS)
Cc1cc(OCCCc2c3n(c4c(-c5c(C)nn(C)c5C)c(Cl)ccc24)[C@H](C)CN(c2cn(C)c4ccc(-c5nnc6ccccn56)cc24)C3=O)cc(C)c1Cl [Example 675, (R)-2-(5-([1,2,4]Triazolo[4,3-a]pyridin-3-yl)-1-methyl-1H-indol-3-yl)-7-chloro-10-(3-(4-chloro-3,5-dimethylphenoxy)propyl)-4-methyl-6-(1,3,5-trimethyl-1H-pyrazol-4-yl)-3,4-dihydropyrazino[1,2-a]indol-1(2H)-one] | 7.55 | 4800 nM | 
COCCOc1cc(N2C[C@@H](C)n3c(c(CCCOc4cc(C)c(Cl)c(C)c4)c4ccc(Cl)c(-c5c(C)nn(C)c5C)c43)C2=O)c2c(c1)cc(C(=O)O)n2Cc1cccc(C)n1 [Example 540, (R)-7-(7-Chloro-10-(3-(4-chloro-3,5-dimethylphenoxy)propyl)-4-methyl-1-oxo-6-(1,3,5-trimethyl-1H-pyrazol-4-yl)-3,4-dihydropyrazino[1,2-a]indol-2(1H)-yl)-5-(2-methoxyethoxy)-1-((6-methylpyridin-2-yl)methyl)-1H-indole-2-carboxylic acid] | > 9.70 | < 200 nM | 
Cc1cc(OCCCc2c3n(c4c(-c5c(C)nn(C)c5C)c(Cl)ccc24)[C@H](C)CN(c2cn(CCN4CCN(C)CC4)c4ccc(-c5ncn(C)n5)cc24)C3=O)cc(C)c1Cl [Example 526, (R)-7-Chloro-10-(3-(4-chloro-3,5-dimethylphenoxy)propyl)-4-methyl-2-(5-(1-methyl-1H-1,2,4-triazol-3-yl)-1-(2-(4-methylpiperazin-1-yl)ethyl)-1H-indol-3-yl)-6-(1,3,5-trimethyl-1H-pyrazol-4-yl)-3,4-dihydropyrazino[1,2-a]indol-1(2H)-one] | > 9.70 | < 200 nM | 
COCc1cc(N2C[C@@H](C)n3c(c(CCCOc4cc(C)c(Cl)c(C)c4)c4ccc(Cl)c(-c5c(C)nn(C)c5C)c43)C2=O)c2c(c1)cc(C(=O)O)n2Cc1ccccn1 [Example 691, (R)-7-(7-chloro-10-(3-(4-chloro-3,5-dimethylphenoxy)propyl)-4-methyl-1-oxo-6-(1,3,5-trimethyl-1H-pyrazol-4-yl)-3,4-dihydropyrazino[1,2-a]indol-2(1H)-yl)-5-(methoxymethyl)-1-(pyridin-2-ylmethyl)-1H-indole-2-carboxylic acid] | > 9.70 | < 200 nM | 
Cc1cc(OCCCc2c3n(c4c(-c5c(C)nn(C)c5C)c(Cl)ccc24)[C@H](C)CN(c2cn(C)c4ccc(-c5nc(C)n(C)n5)cc24)C3=O)cc(C)c1Cl [Example 643, (R)-7-Chloro-10-(3-(4-chloro-3,5-dimethylphenoxy)propyl)-2-(5-(1,5-dimethyl-1H-1,2,4-triazol-3-yl)-1-methyl-1H-indol-3-yl)-4-methyl-6-(1,3,5-trimethyl-1H-pyrazol-4-yl)-3,4-dihydropyrazino[1,2-a]indol-1(2H)-one] | 8.89 | 340 nM | 
Cc1cc(OCCCc2c3n(c4c(-c5c(C)nn(C)c5C)c(Cl)ccc24)[C@H](C)CN(c2cccc4cc(C(=O)O)n(Cc5ccncn5)c24)C3=O)cc(C)c1Cl [Example 518, (R)-7-(7-chloro-10-(3-(4-chloro-3,5-dimethylphenoxy)propyl)-4-methyl-1-oxo-6-(1,3,5-trimethyl-1H-pyrazol-4-yl)-3,4-dihydropyrazino[1,2-a]indol-2(1H)-yl)-1-(pyrimidin-4-ylmethyl)-1H-indole-2-carboxylic acid] | > 9.70 | 810 nM | 
Cc1ccnc(Cn2cc(C(=O)O)c3cccc(N4C[C@@H](C)n5c(c(CCCOc6cc(C)c(Cl)c(C)c6)c6ccc(Cl)c(-c7c(C)nn(C)c7C)c65)C4=O)c32)c1 [Example 484, (R)-7-(7-Chloro-10-(3-(4-chloro-3,5-dimethylphenoxy)propyl)-4-methyl-1-oxo-6-(1,3,5-trimethyl-1H-pyrazol-4-yl)-3,4-dihydropyrazino[1,2-a]indol-2(1H)-yl)-1-((4-methylpyridin-2-yl)methyl)-1H-indole-3-carboxylic acid] | > 9.70 |  | 310 nM
Cc1cc(OCCCc2c3n(c4c(-c5c(C)nn(C)c5C)c(Cl)ccc24)[C@H](C)CN(c2cn(CC(=O)N4CCN(C)CC4)c4ccc(-c5ncn(C)n5)cc24)C3=O)cc(C)c1Cl [Example 546, (R)-7-Chloro-10-(3-(4-chloro-3,5-dimethylphenoxy)propyl)-4-methyl-2-(5-(1-methyl-1H-1,2,4-triazol-3-yl)-1-(2-(4-methylpiperazin-1-yl)-2-oxoethyl)-1H-indol-3-yl)-6-(1,3,5-trimethyl-1H-pyrazol-4-yl)-3,4-dihydropyrazino[1,2-a]indol-1(2H)-one] | 9.42 | 420 nM | 
COCCn1c(C(=O)O)cc2cc(COC)cc(N3C[C@@H](C)n4c(c(CCCOc5cc(C)c(Cl)c(C)c5)c5ccc(Cl)c(-c6c(C)nn(C)c6C)c54)C3=O)c21 [Example 677, (R)-7-(7-chloro-10-(3-(4-chloro-3,5-dimethylphenoxy)propyl)-4-methyl-1-oxo-6-(1,3,5-trimethyl-1H-pyrazol-4-yl)-3,4-dihydropyrazino[1,2-a]indol-2(1H)-yl)-1-(2-methoxyethyl)-5-(methoxymethyl)-1H-indole-2-carboxylic acid] | > 9.70 | < 200 nM | 
Cc1cc(OCCCc2c3n(c4c(-c5c(C)nn(C)c5C)c(Cl)ccc24)[C@H](C)CN(c2cn(CC(N)=O)c4ccc(C(=O)O)cc24)C3=O)cc(C)c1Cl [Example 620, (R)-1-(2-amino-2-oxoethyl)-3-(7-chloro-10-(3-(4-chloro-3,5-dimethylphenoxy)propyl)-4-methyl-1-oxo-6-(1,3,5-trimethyl-1H-pyrazol-4-yl)-3,4-dihydropyrazino[1,2-a]indol-2(1H)-yl)-1H-indole-5-carboxylic acid] | > 9.70 | 7600 nM | 
Cc1cc(OCCCc2c3n(c4c(-c5c(C)nn(C)c5C)c(Cl)ccc24)[C@H](C)CN(c2cc(N(C)C(=O)CN4CCN(C)CC4)cc4c(C(=O)O)cn(C)c24)C3=O)cc(C)c1Cl [Example 604, (R)-7-(7-chloro-10-(3-(4-chloro-3,5-dimethylphenoxy)propyl)-4-methyl-1-oxo-6-(1,3,5-trimethyl-1H-pyrazol-4-yl)-3,4-dihydropyrazino[1,2-a]indol-2(1H)-yl)-t-methyl-5-(N-methyl-2-(4-methylpiperazin-1-yl)acetamido)-1H-indole-3-carboxylic acid] | 9.14 |  | 
Cc1cc(OCCCc2c3n(c4c(-c5c(C)nn(C)c5C)c(Cl)ccc24)[C@H](C)CN(c2ccc4ccc(C(=O)O)nc4c2)C3=O)cc(C)c1Cl [Example 666, (R)-7-(7-chloro-10-(3-(4-chloro-3,5-dimethylphenoxy)propyl)-4-methyl-1-oxo-6-(1,3,5-trimethyl-1H-pyrazol-4-yl)-3,4-dihydropyrazino[1,2-a]indol-2(1H)-yl)quinoline-2-carboxylic acid] | 8.14 |  | 
Cc1cc(N2C[C@@H](C)n3c(c(CCCOc4cc(C)c(Cl)c(C)c4)c4ccc(Cl)c(-c5c(C)nn(C)c5C)c43)C2=O)c2c(c1)cc(C(=O)O)n2Cc1ccccn1 [Example 713, (M, R)-7-(7-chloro-10-(3-(4-chloro-3,5-dimethylphenoxy)propyl)-4-methyl-1-oxo-6-(1,3,5-trimethyl-1H-pyrazol-4-yl)-3,4-dihydropyrazino[1,2-a]indol-2(1H)-yl)-5-methyl-1-(pyridin-2-ylmethyl)-1H-indole-2-carboxylic acid] | > 9.70 |  | 

From US11596639B2, “Substituted indole Mcl-1 inhibitors” (Vanderbilt University, priority 2016, dated 2023)
